Assay results as given in patent US8835476B2, “Synthesis of novel antimicrobials” (priority 2005, dated 2014).
Converted amounts (≈) assume the structure as drawn. Read-outs that look alike come from different tables or passages of the source.

Columns and labels:
Type in all cases: cell-based
[1] = tested on: C. amalonaticus clinical isolates; test: Broth microdilution MIC, clinical isolate strains (NAUTICA); conditions: clinical isolates, one table line per isolate; unit assumed
Excerpt: (§1) All clinical isolates tested were from The North American Urinary Tract Infection Collaborative Alliance (NAUTICA) which is a UTI surveillance study involving 40 medical centres (30 from the US and 10 from Canada). Each centre submitted up to 50 consecutive outpatient midstream urine isolates. All isolates were deemed significant urinary tract pathogens by individual laboratory criteria and identified to the species level by each laboratory's existing protocol. Isolates were transported to the coordinating laboratory (Health Sciences Centre, Winnipeg, Canada) on charcoal swabs. Only one isolate per patient was accepted. Upon receipt, isolates were cultured by the coordinating laboratory, stocked in skim milk, and stored at −80° C. awaiting reference antibiotic susceptibility testing. Elementary demographic information was also compiled for each isolate. Isolates were selected randomly from the above pool to represent 18 different species of Enterobacteriaceae and non-Enterobacteriaceae. An average of 5 strains of each species were tested for a total of 93 organisms. In addition, 23 reference (ATCC) [both gram negative and gram positive] strains were tested.
(§2) Susceptibilities to the compounds were determined using the National Committee for Clinical Laboratory Standards (NCCLS) M7-A6 broth microdilution method. […] DMSO controls were incorporated into the panel to mimic the quantity of DMSO used in dissolving some of the compounds at the higher concentrations. Each final panel well volume was 100 μl with a bacterial inoculum of 5×10^5 colony forming units (CFU)/ml. Panels were read following 16 to 20 hours of incubation at 35° C. in ambient air. The minimum inhibitory concentration (MIC) was defined as the lowest concentration of antimicrobial inhibiting visible growth. Quality control (QC) was performed using four ATCC QC organisms that were run with every batch set up to insure reproducibility.

[2] = tested on: P. vulgaris clinical isolates; test: as above; conditions: clinical isolates, one table line per isolate; unit assumed
Excerpt: as §1, §2

[3] = tested on: E. cloacae clinical isolates; test: as above; conditions: clinical isolates, one table line per isolate; unit assumed
Excerpt: as §1, §2

[4] = tested on: P. stuartii clinical isolates; test: as above; conditions: clinical isolates, one table line per isolate; unit assumed
Excerpt: as §1, §2

[5] = tested on: P. mirabilis clinical isolates; test: as above; conditions: clinical isolates, one table line per isolate; unit assumed
Excerpt: as §1, §2

[6] = tested on: E. coli clinical isolates; test: as above; conditions: clinical isolates, one table line per isolate; unit assumed
Excerpt: as §1, §2

[7] = tested on: S. marcescens clinical isolates; test: as above; conditions: clinical isolates, one table line per isolate; unit assumed
Excerpt: as §1, §2

[8] = tested on: K. pneumoniae clinical isolates; test: as above; conditions: clinical isolates, one table line per isolate; unit assumed
Excerpt: as §1, §2

[9] = tested on: M. morganii clinical isolates; test: as above; conditions: clinical isolates, one table line per isolate; unit assumed
Excerpt: as §1, §2

[10] = tested on: C. koseril clinical isolates; test: as above; conditions: clinical isolates, one table line per isolate; unit assumed
Excerpt: as §1, §2

[11] = tested on: P. retgerri clinical isolates; test: as above; conditions: clinical isolates, one table line per isolate; unit assumed
Excerpt: as §1, §2

[12] = tested on: A. baumanii clinical isolates; test: as above; conditions: clinical isolates, one table line per isolate; unit assumed
Excerpt: as §1, §2

[13] = tested on: S. maltophilia clinical isolates; test: as above; conditions: clinical isolates, one table line per isolate; unit assumed
Excerpt: as §1, §2

[14] = tested on: B. cepacia clinical isolates; test: as above; conditions: clinical isolates, one table line per isolate; unit assumed
Excerpt: as §1, §2

[15] = tested on: C. freundii clinical isolates; test: as above; conditions: clinical isolates, one table line per isolate; in µg/mL (unit assumed)
Excerpt: as §1, §2

[16] = tested on: K. oxytoca clinical isolates; test: as above; conditions: clinical isolates, one table line per isolate; unit assumed
Excerpt: as §1, §2

[17] = tested on: S. liquifaciens clinical isolates; test: as above; conditions: clinical isolates, one table line per isolate; unit assumed
Excerpt: as §1, §2

[18] = tested on: E. aerogenes clinical isolates; test: as above; conditions: clinical isolates, one table line per isolate; unit assumed
Excerpt: as §1, §2

[19] = tested on: P. rettgeri CAP; test: Broth microdilution MIC, reference strains; conditions: Providencia rettgeri, read-out: MIC (growth inhibition, microdilution method)
Excerpt: as §1, §2

[20] = tested on: P. vulgaris ATCC 49132; test: Broth microdilution MIC, ATCC strains; conditions: Proteus vulgaris
Excerpt: as §1, §2

[21] = tested on: S. liquefaciens ATCC 27592; test: Broth microdilution MIC, ATCC strains; conditions: read-out: MIC (growth inhibition, microdilution method)
Excerpt: as §1, §2

[22] = tested on: S. epidermidis ATCC 14990; test: Broth microdilution MIC, ATCC strains; conditions: Staphylococcus epidermidis, ATCC14990; S. epidermidis ATCC 14990; read-out: MIC (growth inhibition, microdilution method)
Excerpt: as §1, §2

[23] = tested on: Pr. stuartii ATCC 33672; test: Broth microdilution MIC, ATCC strains; conditions: Providencia stuartii
Excerpt: as §1, §2

[24] = tested on: E. faecium ATCC 35667; test: Broth microdilution MIC, ATCC strains; conditions: Enterococcus faecium, ATCC35667, read-out: MIC (growth inhibition, microdilution method)
Excerpt: as §1, §2

[25] = tested on: K. pneumoniae ATCC 13883; test: Broth microdilution MIC, ATCC strains; conditions: Klebsiella pneumoniae
Excerpt: as §1, §2

[26] = tested on: S. simulans ATCC 27848; test: Broth microdilution MIC, ATCC strains; conditions: Staphylococcus simulans, ATCC27848, read-out: MIC (growth inhibition, microdilution method)
Excerpt: as §1, §2

[27] = tested on: B. cepacia ATCC 25416; test: Broth microdilution MIC, ATCC strains; conditions: Burkholderia cepacia
Excerpt: as §1, §2

[28] = tested on: A. anitratus ATCC 19606; test: Broth microdilution MIC, ATCC strains; conditions: Acinetobacter calcoaceticus
Excerpt: as §1, §2

[29] = tested on: S. warneri ATCC 27836; test: Broth microdilution MIC, ATCC strains; conditions: Staphylococcus warneri, ATCC27836; S. warneri ATCC 27836; read-out: MIC (growth inhibition, microdilution method)
Excerpt: as §1, §2

[30] = tested on: E. coli ATCC 25922; test: Broth microdilution MIC, ATCC strains; conditions: for MIC: Escherichia coli
Excerpt: as §1, §2

[31] = tested on: P. mirabilis ATCC 29245; test: Broth microdilution MIC, ATCC strains; conditions: Proteus mirabilis
Excerpt: as §1, §2

SMILES	MIC, C. AMALONATICUS [1] [µg/mL]	MIC, E. CLOACAE [3] [µg/mL]	MIC, P. STUARTII [4] [µg/mL]	MIC, P. MIRABILIS [5] [µg/mL]	MIC, S. MARCESCENS [7] [µg/mL]	MIC, K. PNEUMONIAE [8] [µg/mL]	MIC, M. MORGANII [9] [µg/mL]	MIC, C. KOSERI [10] [µg/mL]	MIC, P. RETTGERI [11] [µg/mL]	MIC, A. BAUMANII [12] [µg/mL]	MIC, S. MALTOPHILIA [13] [µg/mL]	MIC, B. CEPACIA [14] [µg/mL]	MIC, C. FREUNDII [15]	MIC, K. OXYTOCA [16] [µg/mL]	MIC, S. LIQUEFACIENS [17] [µg/mL]	MIC, E. AEROGENES [18] [µg/mL]	MIC [22] [µg/mL]	MIC [24] [µg/mL]	MIC [26] [µg/mL]	MIC [29] [µg/mL]	other results
Cn1nnc(-c2cc(C(=O)O)sc2C(=O)O)n1 [DNM-112, 3-(2-Methyl-2H-tetrazol-5-yl)-thiophene-2,5-dicarboxylic acid]	> 256	> 256	> 256	> 256	> 256	> 256	> 256	> 256	> 256	> 256	> 256	> 256	>256	> 256	> 256	> 256	16 (≈ 62.9 µM)	8 (≈ 31.5 µM)	8 (≈ 31.5 µM)	64 (≈ 252 µM)	MIC, P. VULGARIS [2]: > 256 µg/mL; MIC, E. COLI [6]: > 256 µg/mL; MIC [19]: > 256 µg/mL; MIC ([20]; ATCC49132, read-out: MIC (growth inhibition, microdilution method)): > 256 µg/mL; MIC [21]: > 256 µg/mL; MIC ([23]; ATCC33672, read-out: MIC (growth inhibition, microdilution method)): > 256 µg/mL; MIC ([25]; ATCC13883, read-out: MIC (growth inhibition, microdilution method)): > 256 µg/mL; MIC ([27]; ATCC25416, read-out: MIC (growth inhibition, microdilution method)): > 256 µg/mL; MIC ([28]; ATCC19606, read-out: MIC (growth inhibition, microdilution method)): > 256 µg/mL; MIC ([30]; ATCC25922, read-out: MIC (growth inhibition, microdilution method)): > 256 µg/mL; MIC ([31]; ATCC29245, read-out: MIC (growth inhibition, microdilution method)): > 256 µg/mL
O=C(O)c1cc(-c2nn[nH]n2)cs1 [DNM-116, 4-(2H-Tetrazol-5-yl)-thiophene-2-carboxylic acid]	16 (≈ 81.6 µM)	16 (≈ 81.6 µM)	16 (≈ 81.6 µM)	16 (≈ 81.6 µM)	16 (≈ 81.6 µM)	16 (≈ 81.6 µM)	16 (≈ 81.6 µM)	16 (≈ 81.6 µM)	16 (≈ 81.6 µM)	16 (≈ 81.6 µM)	16 (≈ 81.6 µM)	16 (≈ 81.6 µM)	16	16 (≈ 81.6 µM)	16 (≈ 81.6 µM)	16 (≈ 81.6 µM)	16 (≈ 81.6 µM)	8 (≈ 40.8 µM)	> 32	32 (≈ 163 µM)	MIC ([19]; P. rettgeri (CAP in Table 1)): 32 µg/mL (≈ 163 µM); MIC ([20]; ATCC49132, P. vulgaris ATCC 49132, read-out: MIC (growth inhibition, microdilution method)): 32 µg/mL (≈ 163 µM); MIC ([21]; S. liquefaciens ATCC 27592): 16 µg/mL (≈ 81.6 µM); MIC ([23]; ATCC33672, Pr. stuartii ATCC 33672, read-out: MIC (growth inhibition, microdilution method)): 32 µg/mL (≈ 163 µM); MIC ([25]; ATCC13883, K. pneumoniae ATCC 13883, read-out: MIC (growth inhibition, microdilution method)): 16 µg/mL (≈ 81.6 µM); MIC ([27]; ATCC25416, B. cepacia ATCC 25416, read-out: MIC (growth inhibition, microdilution method)): 16 µg/mL (≈ 81.6 µM); MIC ([28]; ATCC19606, A. anitratus ATCC 19606, read-out: MIC (growth inhibition, microdilution method)): 16 µg/mL (≈ 81.6 µM); MIC (growth inhibition, microdilution method) ([30]; E. coli ATCC 25922): 8 µg/mL (≈ 40.8 µM); MIC ([30]; ATCC25922, E. coli ATCC 25922, read-out: MIC (growth inhibition, microdilution method)): 16 µg/mL (≈ 81.6 µM); MIC ([31]; ATCC29245, P. mirabilis ATCC 29245, read-out: MIC (growth inhibition, microdilution method)): 32 µg/mL (≈ 163 µM)
